Assay results taken from paper PMC12135066, “Design and Preclinical Evaluation of Novel uPAR-Targeting Radiopeptides Modified with an Albumin-Binding Entity” (Molecular Pharmaceutics, 2025).

Tested on: mouse serum albumin (MSA)
Assay: Albumin-binding properties in mouse blood plasma (ultrafiltration assay)
Conditions: for Relative albumin-binding affinity, mouse blood plasma: ultrafiltration (Amicon, 10 kDa), mouse blood plasma dilutions in PBS pH 7.4, [MSA]-to-[radiopeptide] 0.01–12500, 0.006 nmol, 37 °C 30 min, γ-counter, inverse ratio of B50, [177Lu]Lu-uPAR-01 set as 1.00, average curve of 3 experiments
Description: The relative albumin-binding affinities of the radiopeptides in mouse and human blood plasma were determined using an ultrafiltration assay with Amicon centrifugal filters (cutoff of 10 kDa; Merck Millipore), as previously reported (Supporting Information). A fixed amount of the respective radiopeptide (15 μL, ∼300 kBq, 0.006 nmol) was added to a defined volume (150 μL) of mouse and human blood plasma dilutions to obtain [mouse serum albumin (MSA)]-to-[radiopeptide] and [human serum albumin (HSA)]-to-[radiopeptide] molar concentration ratios of 0.01–12,500 and 0.01–20,000, respectively. The data were analyzed using a semilogarithmic Hill plot with the maximum binding set as 100% (GraphPad Prism software, version 8.3.1).
Determination of the Albumin-Binding Properties
Purpose: The radiopeptides were investigated with regard to their albumin-binding capabilities in vitro
as a measure to predict blood retention in vivo.
Methods: The relative albumin-binding affinity of the radiopeptides in mouse blood plasma (Rockland
Immunochemicals, Inc., U.S.A.) and human blood plasma (Stiftung Blutspende SRK Aargau-
Solothurn, Switzerland) were determined using an ultrafiltration method. The amount of mouse serum
albumin (MSA) and human serum albumin (HSA) in mouse and human blood plasma was defined as
550 μM and 800 μM, respectively, based on measurements using a dry chemistry analyzer (DRI-CHEM
4000i, FUJIFILM, Japan). A fixed amount of radiopeptide (50 MBq/nmol, ~300 kBq, 15 μL, 0.006
nmol) was added to a defined volume (150 μL) of mouse and human blood plasma and various dilutions
thereof in PBS pH 7.4, resulting in defined [MSA]-to-[radiopeptide] or [HSA]-to-[radiopeptide] molar
concentration ratios ranging from 0.01 ‒12500 and 0.01‒20000, respectively, followed by incubation of
the samples at 37 °C for 30 min. Ice-cold PBS (150 µL, pH 7.4) was added before loading the blood
plasma samples on Amicon centrifugal filters (cut -off of 10 kDa; Merck Millipore) followed by
centrifugation (14000 rcf, 30 min, 4 °C) to allow the separation of the plasma protein -bound from the
plasma-unbound (free) fractions of each sample. The inserts of the filter devices were inverted and centrifuged at 200 rcf for 3 min to recover the protein -bound radiopeptide. The activity in the filtrate
and filter unit was measured in a γ-counter (1480 Wizard, PerkinElmer) and the counts were combined
assuming that the fraction retained in the filter membrane was not bound to proteins. The protein -bound
fraction was expressed as percentage of the whole activity (i.e. plasma protein -bound activity, activity
measured in the filtrate and activity measured in the filter (set as 100%) ). The data were analyzed using
a semi-logarithmic plot assuming a maximum binding of 100%. The Hill equation was fitted to the data
points and the half -maximum binding ( B50) based on the average curve obtained from three independent
experiments (GraphPad Prism software, version 8.3 .1). The relative albumin-binding affinit ies of the
reference compound, whose relative binding affinity was set as 1.0. The results were presented as the
B50 value obtained from the average curve from 3 independent experiments.

Row | Relative albumin-binding affinity, mouse blood plasma | fold lower albumin-binding affinity than [177Lu]Lu-uPAR-01 (mouse blood plasma, ultrafiltration) | Structure (SMILES)
1 | 0.02 |  | CC(C)C[C@H](NC(=O)[C@H](Cc1ccc(O)cc1)NC(=O)[C@@H](CCCNC(=N)N)NC(=O)[C@@H](CO)NC(=O)[C@H](Cc1ccccc1)NC(=O)[C@H](CC1CCCCC1)NC(=O)[C@H](CC(=O)O)NC(=O)CN1CCN(CC(=O)O)CCN(CC(=O)O)CCN(CC(=O)O)CC1)C(=O)N[C@@H](Cc1c[nH]c2ccccc12)C(=O)N[C@@H](CO)C(N)=O [[^177Lu]Lu-DOTA-AE105, metal not drawn, reference compound]
2 | 1.00 |  | CC(C)C[C@H](NC(=O)[C@H](Cc1ccc(O)cc1)NC(=O)[C@@H](CCCNC(=N)N)NC(=O)[C@@H](CO)NC(=O)[C@H](Cc1ccccc1)NC(=O)[C@H](CC1CCCCC1)NC(=O)[C@H](CC(=O)O)NC(=O)[C@H](CCCCNC(=O)CCCc1ccc(I)cc1)NC(=O)CN1CCN(CC(=O)O)CCN(CC(=O)O)CCN(CC(=O)O)CC1)C(=O)N[C@@H](Cc1c[nH]c2ccccc12)C(=O)N[C@@H](CO)C(N)=O [[^177Lu]Lu-uPAR-01, metal not drawn]
3 | 1.08 |  | CC(C)C[C@H](NC(=O)[C@H](Cc1ccc(O)cc1)NC(=O)[C@@H](CCCNC(=N)N)NC(=O)[C@@H](CO)NC(=O)[C@H](Cc1ccccc1)NC(=O)[C@H](CC1CCCCC1)NC(=O)[C@H](CC(=O)O)NC(=O)[C@H](CCCCNC(=O)CCCc1ccc(I)cc1)NC(=O)[C@@H](N)CCCCNC(=O)CN1CCN(CC(=O)O)CCN(CC(=O)O)CCN(CC(=O)O)CC1)C(=O)N[C@@H](Cc1c[nH]c2ccccc12)C(=O)N[C@@H](CO)C(N)=O [[^177Lu]Lu-uPAR-04, metal not drawn]
4 | 0.61 | 1.6 fold | CC(C)C[C@H](NC(=O)[C@H](Cc1ccc(O)cc1)NC(=O)[C@@H](CCCNC(=N)N)NC(=O)[C@@H](CO)NC(=O)[C@H](Cc1ccccc1)NC(=O)[C@H](CC1CCCCC1)NC(=O)[C@H](CC(=O)O)NC(=O)CCOCCOCCOCCOCCNC(=O)[C@H](CCCCNC(=O)CCCc1ccc(I)cc1)NC(=O)CN1CCN(CC(=O)O)CCN(CC(=O)O)CCN(CC(=O)O)CC1)C(=O)N[C@@H](Cc1c[nH]c2ccccc12)C(=O)N[C@@H](CO)C(N)=O [[^177Lu]Lu-uPAR-05, metal not drawn]
